Residues, ends and D or L forms follow the SMILES beside them. *: point of attachment. Cbz = O=C(OCc1ccccc1)*; CH2Cl = ClC*
Biological target: T1, HCV NS3 helicase NS3h_1b(con1) (Hepatitis C virus genotype 1b, UniProt Q9WMX2)
T1 construct: truncated C-terminally His-tagged NS3 proteins lacking the N-terminal protease, called NS3h; His-tag (C); made in house
Assay: MBHA screen of NCI mechanistic set library at 20 μM (percent inhibition, compound interference)
Format: biochemical
Details: compounds at 20 μM; for Inh. (%) (Inhibition): calculated from Equation 1
How it was run: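 Molecular beacon-based DNA unwinding assay; compounds screened at 20 μM in triplicate, with DMSO-only negative and 500 nM dT20 positive controls. Fluorescence (ex 643/em 670 nm) was read before and 30 min after adding ATP to 1 mM. Percent inhibition came from the change relative to DMSO controls; interference from pre-ATP fluorescence versus DMSO controls.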

[1] = MBHA with DNA substrate, assay interference calculated with Equation 2
[2] = assay interference calculated with Equation 2 (fluorescence vs DMSO-only controls before ATP)

T1 sequence (Q9WMX2 1192-1657): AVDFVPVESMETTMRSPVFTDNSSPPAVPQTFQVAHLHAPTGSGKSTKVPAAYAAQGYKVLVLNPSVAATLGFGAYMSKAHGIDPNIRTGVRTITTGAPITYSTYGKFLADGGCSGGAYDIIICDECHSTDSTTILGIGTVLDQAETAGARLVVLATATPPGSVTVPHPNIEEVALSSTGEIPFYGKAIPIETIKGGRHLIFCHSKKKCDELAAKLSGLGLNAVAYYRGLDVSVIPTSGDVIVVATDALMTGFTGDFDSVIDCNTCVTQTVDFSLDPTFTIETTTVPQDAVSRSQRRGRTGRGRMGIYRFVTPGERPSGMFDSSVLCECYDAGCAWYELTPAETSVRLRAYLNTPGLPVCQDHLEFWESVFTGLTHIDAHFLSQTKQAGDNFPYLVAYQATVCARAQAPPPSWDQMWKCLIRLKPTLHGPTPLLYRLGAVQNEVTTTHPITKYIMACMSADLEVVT

Int.* (Ratio) (Interference) [1] | Inh. (%) (Inhibition) (MBHA with DNA substrate) | Inh. (%) (Inhibition) (MBHA with a DNA substrate) | Int.* (Ratio) (Interference) [2] | SMILES
0.81 Ratio | 32.6% | – | – | C=C1C(=O)O[C@@H]2/C=C(/C)C(=O)C[C@H]3OC(C)(C)O[C@]3(C)C[C@@H](OC(=O)/C(C)=C\C)[C@@H]12 [Compound 329696]
1.10 Ratio | −18.9% | – | – | CN(C)CCOc1ccc(I)cc1Cc1ccccc1.Cl [Compound 11930]
– | – | 10.2% | 0.94 Ratio | Nc1nc(=S)c2ncn([C@@H]3C[C@H](O)[C@@H](CO)O3)c2[nH]1 [Compound 71851]
0.46 Ratio | 29.7% | – | – | Cc1ccc2c(ccc(C=Cc3ccc(O)c4ncccc34)[n+]2C)c1 [Compound 85700]
1.08 Ratio | 27.1% | – | – | Cc1c2ccc3ccccc3c2c[n+]2ccccc12.[Cl-] [Compound 28002]
1.09 Ratio | 1.4% | – | – | CC(C)CC(NC(=O)OCc1ccccc1)C(=O)NC(Cc1ccccc1)C(=O)CCl (stereo not drawn) [Compound 173904] (Cbz-Leu-Phe-CH2Cl; configuration not given here)
1.06 Ratio | −14.5% | – | – | COc1cc(/C=C2\S/C(=N/Nc3nc(-c4ccc(Br)cc4)cs3)NC2=O)cc(OC)c1OC [Compound 657457]
1.05 Ratio | −10.4% | – | – | O=c1ncccn1C1OC(CO)C(O)C1F (centres unmarked) [Compound 625355]
– | – | −4.5% | 0.90 Ratio | COc1ccc(O)cc1 [Compound 4960]
– | – | −30.3% | 1.01 Ratio | Cc1c(N=Cc2ccc(N(CCC#N)CCC#N)cc2)c(=O)n(-c2ccccc2)n1C [Compound 620280]
0.87 Ratio | 20.4% | – | – | Cc1ccc(/C=C2\CNC/C(=C\c3ccc(C)cc3)C2=O)cc1.Cl [Compound 632839]
0.90 Ratio | 4.7% | – | – | COc1ccc(C=CC(=O)Oc2cc(O)cc(O)c2)cc1 [Compound 175296]
– | – | 9.0% | 0.97 Ratio | CC1=NC(C(C)C)C(=O)O1 (centres unmarked) [Compound 635968]
0.91 Ratio | −10.5% | – | – | C=C1C(=O)C23CC[C@@H]4C(C)(C(=O)OC)CCCC4(C)[C@@H]2CCC1(O)C3 (some centres unmarked) [Compound 620358]
0.89 Ratio | 18.5% | – | – | Nc1ccc(S(=O)(=O)Nc2cnc3c(Cl)cccc3n2)cc1 [Compound 339004]
1.05 Ratio | 0.6% | – | – | CN(C)CCNC(=O)c1cccc2[nH]c(-c3ccncc3)nc12.Cl [Compound 678932]
0.95 Ratio | −1.5% | – | – | Cc1c2ccnc(C(N)=O)c2c(C)c2c1[nH]c1ccccc12.Cl [Compound 335142]
0.95 Ratio | 1.1% | – | – | Cc1nc(Cl)c(C)c(Cl)n1 [Compound 40212]
0.64 Ratio | 46.4% | – | – | COc1cccc2c1C(=O)c1c(O)c3c(c(O)c1C2=O)C[C@@](O)(C(C)=O)C[C@@H]3OC1CC(N(C)C)C(O)C(C)O1.Cl (some centres unmarked) [Compound 258812]
0.88 Ratio | 16.2% | – | – | COc1cc2c(cc1Oc1ccc(OC)c3c1CC1c4c(cc(OC)c(OC)c4-3)CCN1C)CC1c3c(cc(OC)c(OC)c3-2)CCN1C (centres unmarked) [Compound 274893]
0.89 Ratio | 56.2% | – | – | O=S(=O)(O)c1cc(N=Nc2cc(S(=O)(=O)O)c3cccnc3c2O)ccc1/C=C/c1ccc(N=Nc2cc(S(=O)(=O)O)c3cccnc3c2O)cc1S(=O)(=O)O [Compound 638352]
1.09 Ratio | 4.9% | – | – | COC1=CC(=O)c2c(ccc3ncnc(N)c23)C1=O [Compound 622190]

Int.* (Ratio) (Interference) [1] | Inh. (%) (Inhibition) (MBHA with DNA substrate) | Inh. (%) (Inhibition) (MBHA with a DNA substrate) | Int.* (Ratio) (Interference) [2] | SMILES
0.91 Ratio | 4.5% | – | – | O=C1C(CN2CCCCC2)CCCC1CN1CCCCC1 (centres unmarked) [Compound 39202]
0.87 Ratio | 13.3% | – | – | COc1ccc2cc3[n+](cc2c1OC)CCc1cc2c(cc1-3)OCO2.[Cl-] [Compound 163088]
0.70 Ratio | 36.4% | – | – | O=C1c2ccccc2C(=O)c2c(O)c(NCCNCCO)cc(O)c21 [Compound 316157]
– | – | 7.7% | 0.96 Ratio | Cl.NCCSSCc1ccccc1CSSCCN [Compound 624169]
0.93 Ratio | 15.3% | – | – | Nc1nc(SCCc2ccccc2)c2[nH]cnc2n1 [Compound 35866]
0.98 Ratio | 1.5% | – | – | COC(=O)c1cc(-c2c[nH]cc2C(=O)OCc2ccccc2)cn1S(=O)(=O)c1ccc(C)cc1 [Compound 679527]
1.02 Ratio | −13.7% | – | – | C/C(=N\NC(=S)N1CCN(C2CCCCCC2)CC1)c1ccccn1 [Compound 376265]
0.96 Ratio | −2.2% | – | – | CC(C)CCCC(=O)CCCCCCC(=O)CCN(O)C(=O)C(N)CO.O=S(=O)(O)O (centres unmarked) [Compound 106997]
0.93 Ratio | 13.6% | – | – | O=[n+]1c2c(n([O-])c3ccccc31)-c1cccc3cccc-2c13 [Compound 60309]
1.02 Ratio | 3.2% | – | – | C/C(=N\NC(=S)N1CCC1)c1ccccn1 [Compound 319726]
1.08 Ratio | 0.3% | – | – | C(=C/c1nc2ccccc2o1)/c1ccc2c(c1)OCO2 [Compound 176655]
– | – | −4.4% | 1.12 Ratio | O=C1C=CC(CC(=O)c2ccc3ccccc3c2)O1 (centres unmarked) [Compound 634650]
– | – | −43.3% | 1.28 Ratio | NC1=NCN([C@@H]2O[C@H](CO)[C@@H](O)[C@H]2O)C(=O)N1 [Compound 264880]
– | – | 9.2% | 0.49 Ratio | NC(N)=NCCCS(=O)(=O)Nc1ccc(Nc2c3ccccc3nc3cc([N+](=O)[O-])ccc23)cc1 [Compound 177365]
1.08 Ratio | −11.4% | – | – | CCOc1cccc(/C=N/N=C2\C(=O)Nc3c(Cl)cc(Cl)cc32)c1O [Compound 329277]
0.96 Ratio | 1.5% | – | – | O=C1/C(=C/c2cccs2)Oc2ccccc21 [Compound 56544]
0.99 Ratio | 19.1% | – | – | CC1(C)C(O)OC(O)C1(C)C (centres unmarked) [Compound 614928]
– | – | −6.0% | 1.02 Ratio | COC(=O)c1ccc(NCc2cc(O)ccc2O)cc1 [Compound 654705]
0.91 Ratio | −12.1% | – | – | CC(C)[Si]1(C(C)C)OCC2OC(n3cnc4c(N)ncnc43)C(N)C2O[Si](C(C)C)(C(C)C)O1 (centres unmarked) [Compound 687330]
0.89 Ratio | 0.4% | – | – | Nc1nc(Cl)nc2c1ncn2[C@H]1C[C@H](O)[C@@H](CO)O1 [Compound 105014]
0.98 Ratio | −7.5% | – | – | Cc1cc(-c2nc3ccccc3s2)ccc1N [Compound 674495]
0.88 Ratio | −14.8% | – | – | COC(=O)c1ccccc1NC(=O)C(=O)CC(=O)c1ccccc1NC1=CC(=O)C(=O)c2ccccc21 [Compound 641240]

SMILES | Int.* (Ratio) (Interference) [1] | Inh. (%) (Inhibition) (MBHA with DNA substrate) | Inh. (%) (Inhibition) (MBHA with a DNA substrate) | Int.* (Ratio) (Interference) [2]
C[Si](C)(CN)CN.[Cl][Pt][Cl] [Compound 603577] | 0.93 Ratio | 13.5% | – | –
C1CCNCC1.S=C(S)N1CCCCC1 [Compound 1906] | 1.17 Ratio | −1.6% | – | –
Cl.NC(=O)c1cn(C2OC(CO)C(O)C2O)c2ncnc(N)c12 (centres unmarked) [Compound 143648] | – | – | −4.1% | 0.99 Ratio
C/C(=N\N=C(/[Se])N1CC2CCC(CC2)C1)c1ccccn1 [Compound 323241] | – | – | 10.7% | 0.90 Ratio
CC(=O)[O][Pb]([O]C(C)=O)([c]1ccccc1)[c]1ccccc1 [Compound 173046] | 0.93 Ratio | −12.2% | – | –
CCC[CH2][Pb]([Cl])([CH2]CCC)[CH2]CCC [Compound 168597] | 0.98 Ratio | 2.6% | – | –
O=C1NC(=S)NC(=O)C1C(=O)Nc1ccccc1 [Compound 336628] | 0.90 Ratio | 17.4% | – | –
CC(C)C[C@H]1C(=O)N2CCC[C@H]2[C@]2(O)O[C@](NC(=O)[C@@H]3C=C4c5cccc6[nH]c(Br)c(c56)C[C@H]4N(C)C3)(C(C)C)C(=O)N12.CS(=O)(=O)O [Compound 169774] | 0.92 Ratio | −15.6% | – | –
C[C@@H]1CCOC(=O)/C=C/C=C\C(=O)O[C@@H]2C[C@H]3O[C@@H]4[C@@H]5O[C@]5(C)[C@H](O)C[C@]4(COC(=O)[C@H]1O)[C@]2(C)[C@@]31CO1 [Compound 328166] | 1.04 Ratio | 20.7% | – | –
CC(/C=N/N=C(N)N)=N\N=C(N)N [Compound 32946] | 1.07 Ratio | −13.6% | – | –
N#Cc1cn([C@@H]2O[C@H](CO)[C@@H](O)[C@H]2O)c2ncnc(N)c12 [Compound 63701] | – | – | −3.8% | 0.98 Ratio

Source: US9464064B2, “HCV helicase inhibitors and methods of use thereof” (University of Kansas, priority 2011, dated 2016)
